Experimental data: EP1370276B1, “INTERCELLULAR COMMUNICATION FACILITATING COMPOUNDS AND THEIR MEDICAL USE” (Zealand Pharma A/S, priority 2001, dated 2002)
[ ]: non-standard residue; d: D form. Hyp = O=C(O)[C@@H]1C[C@@H](O)CN1

How the values were obtained:
[1] = In vitro plasma and serum stability, rabbit; type: in vitro ADME; settings: 37°C
Method: (§1) The stability of peptides is analysed in serum and plasma. The peptides are incubated at 37°C in plasma or serum and samples taken at approx. 9 regular intervals between t=0 and t=156 min are analysed by HPLC.
This is done by subsequent injections of the drug, plasma, and a co-injection with the drug and the plasma, followed by optimisation of the LC method parameters until a satisfactory separation is obtained. Three parallel experiments are performed for each plasma type.[…] at t = 0 and incubated at 37°C (drug-plasma mixture conc. 0.1 mg/ml). Samples of 100 ml of the drug-plasma mixture are removed at appropriate intervals and the degradation stopped by precipitation of the sample with 10 ml MeCN:TFA 50:50 v/v. A control plasma sample without the drug treated in the same manner is also taken. The plasma samples are centrifuged for 15 min. at 12,000 rpm (Eppendorf centrifuge) at ambient temperature. The resulting supernatant solution is transferred to 300 ml HP autosamler vials and analyzed by HPLC. The samples are analyzed in the following order: blank, the peptide at 0.1 mg/mL, the plasma without the peptide, the three parallel samples for t = 0, the three parallel samples for t = 5 min. the three parallel samples for t = 10 min. etc. […]

[2] = In vitro plasma and serum stability, human; type: in vitro ADME; settings: for T1/2 PLASMA, HEPARIN HUMAN: 37°C
Method: as §1
This is done by subsequent injections of the drug, plasma, and a co-injection with the drug and the plasma, followed by optimisation of the LC method parameters until a satisfactory separation is obtained. Three parallel experiments are performed for each plasma type.100 ml of peptide is mixed with 900 ml plasma at t = 0 and incubated at 37°C (drug-plasma mixture conc. 0.1 mg/ml). Samples of 100 ml of the drug-plasma mixture are removed at appropriate intervals and the degradation stopped by precipitation of the sample with 10 ml MeCN:TFA 50:50 v/v. A control plasma sample without the drug treated in the same manner is also taken. The plasma samples are centrifuged for 15 min. at 12,000 rpm (Eppendorf centrifuge) at ambient temperature. The resulting supernatant solution is transferred to 300 ml HP autosamler vials and analyzed by HPLC. The samples are analyzed in the following order: blank, the peptide at 0.1 mg/mL, the plasma without the peptide, the three parallel samples for t = 0, the three parallel samples for t = 5 min. the three parallel samples for t = 10 min. etc. And finally the three parallel samples for t = 0 are repeated to make sure that there have been no degradation or other failure during the analyses. The sample concentrations (peak height in mAU) are plotted vs. time and fitted to a function describing a mono exponential decay (Excel). […] Table 7. Results of in vitro stability test in plasma and serum, T1/2 in min and hrs

[3] = tested on: calcium-induced arrythmias; assay: Calcium-induced arrhythmia model in mice (time to 2nd degree AV-block); type: in vivo; settings: for CaCl2 mice In vivo, % / CaCl2 mice Score: calcium chloride induced arrythmia model; for CaCl2 mice Score: no key for the score
Method: The antiarrhythmic effects of compounds of this invention were tested in an in vivo model of calcium-induced arrythmias according to the model of Lynch et al. ^[37]. […]. Commercial solutions of hypnorm and midazolam were diluted 1:1 in distilled water and one part diluted Hypnorm® is mixed with one part diluted midazolam.
The anaesthesia was induced by s.c. administration in a dose of […]. An i.v. cannula was inserted into the tail vein. The lead II ECG signal was recorded continuously by positioning of a stainless steel ECG electrodes on the right forelimb and on the left hind limb. The ground electrode was placed on the right hind limb. The signal was amplified (x 5.000-10.000) and filtered (0.1-150 Hz) via a Hugo Sachs Electronic model 689 ECG module. The analogue signal was digitised via a 12 bit data acquisition board (Data Translation model DT321) and sampled at 1000 Hz using the Notocord HEM 3.1 software for Windows NT. After a 10-min equilibration period, the test sample of drug was injected into the tail vein. Mice pre-treated with vehicle were tested as a measure of the control level in untreated animals. The injection volume was 100 µl in all experiments. Infusion of CaCl2 (30 mg/ml, 0.1 ml/min ≈ 100 mg/kg/min (calciumchlorid-2-hydrat, Riedel-de Haën, Germany)) was started 3 min after i.v. administration of drug or vehicle. The time lag to onset of 2nd degree AV-block was determined as the time from the start of CaCl2 infusion until the first arrhythmic event occured. An event of 2nd degree AV-block was defined as intermittent failure of the AV conduction characterised by a P-wave without the concomitant QRS complex.
Responses were expressed relative to the time until 2nd degree AV-block occurred in vehicle treated mice.

[4] = tested on: CHO cells; assay: In situ binding of [125I]AAP10 on intact CHO cells; settings: overnight at 4° C
Method: CHO cells are seeded in 24-multi well dishes in a density of 7,900 cells/cm^2 (∼ 15,000 cells/well) and grown for 3 Days In Vitro (DIV) in 1 ml/well of F-12K Nutrient Mixture supplemented with 10% Foetal Calf Serum (FCS) and 1000 units penicillin/1000 µg streptomycin (pen/strep) in an atmosphere of 5% CO2 and 100% humidity at 37° C. The cell density has at that time increased to 295,000 cells/cm^2 (152 pgprot/cell ∼ 85 µgprot/well).
On the day of analysis cells are removed from the incubator and each well is washed twice with, depending on the experiment, either 2 ml pre-warmed (37 °C) or ice-cold (0 °C) D-PBS to remove serum. It is important to keep the period to a minimum during which cells are left without physiological solutions to avoid that they dry out during washing procedures. The cold washed cells are used directly for binding assays while the warm washed cells are used for experiments with glucose and oxygen deprivation.
The in situ binding is performed by a modified protocol based on the description by Koenig. […] Cells incubate overnight at 4° C to reach equilibrium. Each well, one at the time, is then rinsed rapidly with 2 x 1 ml D-PBS and left to dry.
0.25 ml of 0.5 % Triton-X-100 (v/v) is added to each well and cells left for at least 1 h to solubilize. The extract is transferred to counting vials, the wells rinsed with 0.25 ml water and the rinse extract added to the corresponding vials. The vials are counted in a γ-counter. Table 3. In situ binding, IC50 (nM).

[5] = target: murine heart tissue preparations; assay: Displacement of [125I]AAP10 from murine heart tissue preparations; type: binding, mice; settings: displacement of 0.8 nM [125I]AAP10, filtrate; read-out: Filtrate IC50
Method: Hearts are excised from mice (Balb/cJ, 20 g), rinsed twice in ice-cold (0°C) 0.32 M sucrose and homogenized on ice in 10 volumes of sucrose with an Ultra Turrax homogeniser (1000 rpm) for 2 minutes. The homogenate is centrifuged at 1000 gmea" for 10 minutes at 4° C and the supernatant collected and filtrated through 4 layers of gauze. The filtrate is then centrifuged at 50,000 gmean for 45 min at 4° C and the pellet resuspended in 10 volorg. wet weight ice-cold distilled water and incubated for 60 min at 0° C and re-centrifuged at 50,000 gmean at 45 min at 4° C. The resulting pellet is resuspended in 2 vol org. wet weight of PBS (Phosphate Buffered Saline) and stored at - 80° C until use.

[6] = tested on: phosphoinositol turnover in rat primary cardiomyocytes; assay: Phosphoinositol turnover in primary cardiomyocyte cultures; type: cell-based; settings: for EC50: enhancement of phospho-inositol turnover
Method: Neonatal Wistar rats (1-2 days old) are used. Hank's calcium- and magnesium-free balanced salt solution, buffered with 10 mM HEPES is used for washing during cell separation procedures. The hearts are excised, the ventricles isolated and the tissue cut into small pieces. The myocardial cells are isolated by stepwise enzymatic degradation with collagenase 0.05%, as described by ^[35]. After repeated rounds of centrifugation and washing, the precipitated cells are resuspended in culture medium M199 with Earle's salt, 10% NCS, penicillin (75 U/mL), and streptomycin (75 U/mL) and pre-plated in a Petri dish for 90 minutes. The non-adherent cells are collected in the culture medium and plated in multidishes at 2.5*10^5 cells/well. The cultures are kept in a water-saturated CO2-incubator at 37°C. The cardiomyocyte cultures are used for analyses after 6-7 days.
Cardiomyocyte cultures are incubated for 48 hours in culture medium containing 4 µCi/mL myo-[2-^3H]inositol to label the inositol phospholipids. On the day of analysis the medium is replaced by a buffer solution containing lithium and incubated at 37°C, as described by Meier et al. ^[36]. After at least five minutes this buffer is replaced by the same volume of buffer containing test compound and incubated for exactly 20 minutes. The reaction is stopped by rapid replacement of the buffer by ice cold 4%v/v perchloric acid (PCA) and incubation for at least 20 minutes at 0°C. The PCA-extract is neutralised and the [^3H]inosltol phosphates are separated by anion-exchange chromatography using Amprep™ columns containing 100 mg SAX Quaternary amine. The [^3H]inositol mono-phosphates are eluted and radioactivity in the fraction measured by liquid scintillation counting.
Before adding test substances to the cultures, the cells are depleted of glucose and oxygen by incubating them in a N2-atmosphere in glucose-free lithium-buffer for 10 minutes at 37°C. Control cells are incubated likewise only at normal atmospheric conditions and in a buffer containing glucose.

[7] = tested on: cAMP formation in CHO cells; assay: Inhibition of forskoline stimulated cAMP formation in CHO cells; type: cell-based; settings: 10 µM forskoline, 20 min, cells pre-treated with glucose and oxygen deprivation
Method: CHO cells are seeded in 96-well microtiter plates in a density of 6,000 cells/cm^2 (∼ 2,000 cells/well) and grown for 4 days in vitro in 200 µl/well of growth media as described in the previous section.
On the day of analysis cells are removed from the incubator and washed twice with 200 µl pre-warmed (37°C) D-PBS (pH 7.2) to remove serum. Cells are incubated for 10 min in glucose free D-PBS and an N2-atmosphere as described in the previous section.
CHO cells are incubated at 37° C in D-PBS (pH 7.2) containing 6 mM glucose, 2.0 mM IBMX (phospodiesterase blocker), 10 µM forskoline (stimulates cAMP formation) and increasing concentrations of test peptide. The reaction is stopped after 20 min by addition of 20 µl 0.5 M HCl and left for at least 20 min at room temperature.
The content of cAMP is analysed by mixing 20 µl of the acid cell extract into FlashPlate™ wells (NEN assay kit SMP001) containing 180 µl [^12SI]cAMP tracer solution. FlashPlates™ are incubated overnight at 4° C and plate bound radioactivity counted in TopCount (Packard Instrument). Data are calculated as described in the previous section.

[8] = tested on: isolated perfused rabbit hearts; assay: Isolated perfused rabbit heart (Langendorff), APD90 dispersion during hypokalemic ischemia; settings: 10^-10 mol/l

| Substance | T1/2 PLASMA, HEPARIN RABBIT [1] | T1/2 PLASMA, HEPARIN HUMAN [2] | Human plasma half life [2] [h] | CaCl2 mice In vivo, % [3] | CaCl2 mice Score [3] | IC50 [4] [nM] | IC50 [5] [nM] | EC50 value relative to the EC50 value for Compound 2 ([6]; during metabolic stress induced by anoxia and glucose deprivation) [fold] | EC50 value relative to the EC50 value for Compound 2 ([6]; during normoxia) [fold] | EC50 ([6]; Glucose and oxygen deprivation) [nM] | EC50 ([6]; Normal conditions) [nM] | In vivo activity ([3]; maximal effect, increase in time until 2nd degree AV-block relative to vehicle, i.v.) | EC50 [7] [nM] | increase in APD90 dispersion during hypokalemic, acute myocardial ischemia [8] |
| --- | --- | --- | --- | --- | --- | --- | --- | --- | --- | --- | --- | --- | --- | --- |
| cyclo(GAG[Hyp]PYQ) | 14 hrs ± 2% | 15 hrs ± 1% | 15 | 48 +/- 14% | 2 | – | – | – | – | – | – | – | – | – |
| H-GAG[Hyp]PY-NH2 [AAP10, reference compound] | – | – | – | – | 3 | 130 | 1.2 | 10 | 200 | 100 | 2000 | +++ (+++ refers to >60% increase in time until arrhythmia) | 11 | ineffective |
| cyclo(GAG[Hyp]PYN) | 30 hrs ± 8% | 9 hrs ± 1% | 13 | 57 +/- 8% | 2 | – | – | – | – | – | – | – | – | – |
